Data reported in patent publication US11116851B2, “Anti-cancer and anti-inflammatory therapeutics and methods thereof” (University of Massachusetts, priority 2015, dated 2021).

Legend:
[1] = system: human ovarian, pancreatic, and colon cancers; assay: Tumor growth in tumor bearing PDX-mice; type: in vivo, mouse
From the text: (§1) Delivery of this intracellular tumor suppressor to the cytoplasm of the cancer cell is essential to achieve the cancer cell growth arrest and apoptosis. First attempts were made by fusing a variant of the cell penetrating peptide-TAT.

[2] = in vivo
From the text: as §1

[3] = system: Cleaved Caspase 3; assay: Cleaved Caspase 3 in PC3 cells; type: cell-based
Experimental: (§2) Over-expression of DKK3 in cancer cells initiates c-Jun Kinase (JNK) mediated apoptosis. (Abarzua et al. 2005 Cancer Res 65, 9617-9622; Kawasaki et al. 2009 Cancer Gene Ther 16, 65-72.) IBS and the JNK inhibitor, TAT-JBD were introduced into PC3 cells as TAT-fusion protein and peptide, respectively, and cell proliferation was measured after 3 days. […] Pro-apoptotic levels of cleaved Caspase 3 increased in TAT-IBS treated cells and this increase was blocked by inhibition of JNK activity (FIG. 8d). […] (Veeck et al. 2012 Biochim Biophys Acta 1825, 18-28; Abarzua et al. 2005 Cancer Res 65, 9617-9622.)

[4] = system: HEK293 cells; assay: Basal and Wnt stimulated proliferation of HEK293 cells; type: cell-based; details: HEK293, highest concentration tested
From the text: The impact of IBS on basal and Wnt stimulated cell proliferation was then examined in immortalized HEK293 cells (FIG. 9a). […] The more robust silencing by TAT-IBS is likely due to the universal delivery of this regulator to the cell monolayer.

[5] = system: Elf3; assay: Elf3-luciferase reporter assay; type: cell-based; details: suppressed by Wnt-1 stimulation
From the text: (§3) FIG. 23. TAT-IBS antagonizes primary and secondary β-catenin and NF-κB-dependent gene expression. A) TAT-IBS blocks an NF-κB (p65)-responsive promoter driving luciferase reporter in HEK293 cells that was stimulated by Wnt-1 transfection (shaded bars). […] C) (Data previously disclosed in UMMC 12-40PR2). TAT-IBS restores E-Cadherin (CDH1)-promoter activity in Wnt-1 stimulated cells (middle chart). TopFlash and E2F-luciferase reporters are dependent on β-TrCP substrates, β-catenin and E2F, respectively (top and bottom charts). TAT-IBS blocks transcriptional activation by Wnt-1 stimulation of both reporters. DKK3b fused to an N-terminal cell penetrating peptide, a protein construct we refer to as TAT-IBS (a.k.a. cpIBS), regulates the activity of promoter elements that depend upon the nuclear translocation of β-TrCP target substrates (FIG. 23) as determined by promoter-luciferase reporter assays. Wnt-1 stimulates transcription regulated by NF-κB (FIG. 23A), β-catenin, and E2F (FIG. 23 C) transcription factor proteins. TAT-IBS treatment blocks this Wnt-1-induced stimulation. In contrast, Wnt-1 down-regulates transcription from promoter elements of two biomarkers of epithelial cellular differentiation, E-cadherin (FIG. 23C) and Elf3 (FIG. 23B). TAT-IBS treatment blocks Wnt-1-induced repression of these two epithelial gene transcripts.

[6] = system: NF-κB (p65); assay: NF-κB (p65)-responsive promoter luciferase reporter in HEK293 cells; type: cell-based; details: HEK293 cells stimulated by Wnt-1 transfection
From the text: as §3

[7] = system: β-catenin; assay: Tcf-luciferase promoter reporter assay; type: cell-based; details: Wnt1 co-transfected cells, treated 24 h
Experimental: Primary and downstream promoter-luciferase reporter assays were used to explore the interaction between IBS and β-catenin-driven gene expression. Cells were co-transfected with Wntl and promoter-driven luciferase constructs and treated with TAT-IBS for 24 h. […] The ability of IBS to modulate two downstream β-catenin modulated pathways that reduce cell adhesion (ECad) and promote cell cycle progression (E2F) was also examined. […] Motile MDA-MB-231 cells were used to examine the effect of IBS on β-catenin dependent cell migration. IBS slowed malignant cell migration by >60% (FIG. 9d).

[8] = system: PC3 cells; assay: PC3 cell proliferation after TAT-fusion protein/peptide; type: cell-based
Experimental: as §2

[9] = target: native, unphosphorylated β-catenin (UniProt P35222); assay: cell-based or functional assay
[10] = system: PC3 cells; assay: PC3 cell proliferation with Tet-inducible IBS or DKK3 constructs; type: cell-based; details: limited antibiotic induction of Tet-inducible construct
From the text: The relationship between IBS and the Wnt/β-catenin signaling pathway was defined by cell proliferation, promoter-driven reporter assays, and cell migration analysis. Limited antibiotic induction of Tet-inducible IBS or DKK3 constructs was used to avoid the untoward effects of over-expression. […] (Veeck et al. 2012 Biochim Biophys Acta 1825, 18-28; Hsieh et al. 2004 Oncogene 23, 9183-9189; Abarzua et al 2005 Cancer Res 65, 9617-9622; Edamura et al. 2007 Cancer Gene Ther 14, 765-772.)

UniProt P35222, sequence (P35222 2-781 limits assumed): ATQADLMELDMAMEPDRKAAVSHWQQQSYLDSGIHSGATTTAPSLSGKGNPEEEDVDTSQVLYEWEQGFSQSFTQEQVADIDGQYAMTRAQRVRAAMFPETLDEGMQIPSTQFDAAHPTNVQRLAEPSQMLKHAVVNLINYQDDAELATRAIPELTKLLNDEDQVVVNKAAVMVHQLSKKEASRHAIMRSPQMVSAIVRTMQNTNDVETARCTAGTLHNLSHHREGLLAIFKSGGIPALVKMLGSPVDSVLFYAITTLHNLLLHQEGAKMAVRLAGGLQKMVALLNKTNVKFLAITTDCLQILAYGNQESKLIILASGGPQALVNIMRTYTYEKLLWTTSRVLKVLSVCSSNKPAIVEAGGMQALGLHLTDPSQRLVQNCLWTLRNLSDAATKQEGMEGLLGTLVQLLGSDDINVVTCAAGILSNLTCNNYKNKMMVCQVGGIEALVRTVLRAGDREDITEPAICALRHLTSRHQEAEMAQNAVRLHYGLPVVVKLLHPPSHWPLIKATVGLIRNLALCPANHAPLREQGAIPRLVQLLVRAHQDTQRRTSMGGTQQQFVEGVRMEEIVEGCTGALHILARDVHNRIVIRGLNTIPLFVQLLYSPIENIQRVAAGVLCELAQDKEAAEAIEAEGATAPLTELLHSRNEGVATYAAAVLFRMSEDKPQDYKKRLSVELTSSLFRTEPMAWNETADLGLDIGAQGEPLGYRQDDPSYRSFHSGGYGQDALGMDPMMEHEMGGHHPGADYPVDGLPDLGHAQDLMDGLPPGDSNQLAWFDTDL

For “TAT-IBS: DKK3b fused to an N-terminal cell penetrating peptide; bacterially expressed, unfolded fusion protein”, the tumor necrosis ([1]; pancreatic, and colon cancers in PDX-mice) was “led to tumor necrosis”, the “growth of human cancers in PDX-mice” value ([1]; pancreatic, and colon cancers, bacterially expressed, unfolded protein) was “arrested growth” and the “effects on biology in the mouse” value [2] was “no effects on any biology in the mouse”. For the same substance, the “pro-apoptotic levels of cleaved Caspase 3” value [3] was “increased”, the Wnt-stimulated cell proliferation [4] was “completely eliminated” and the basal cell proliferation [4] was “without altering basal cell proliferation”. For the same substance, the “transcriptional activity of Elf3-luciferase” value [5] was “restores transcriptional activity”, the “NF-κB (p65)-responsive promoter luciferase reporter” value [6] was “blocks” and the “Wnt stimulated Tcf-luciferase expression” value [7] was “completely arrested”. For the same substance, the “loss of the initial cell population” value ([8]; PC3 cells, after 3 days) was > 75% and the PC3 cell proliferation ([8]; TAT-fusion protein, measured after 3 days) was “arrested proliferation”.

For “TAT-IBS (DKK3b fused to an N-terminal cell penetrating peptide) (from UniProt Q9UBP4 72-350)”, the nuclear β-catenin level in LiCl-stimulated SOAS-2 and HeLa cells (cell fractionation) (fraction of untreated controls) [9] was 0.33 and the total cell content and distribution of β-catenin (nuclear, cytosolic and microfilament fractions) [9] was 3 fold.

For “DKK3: secreted glycoprotein product of the DKK3 locus”, the PC3 cell proliferation [10] was “did not alter the rate of PC3 cell proliferation”.
